In PubChem BioAssay AID330 (DTP/NCI, 2004):
“And” between values parts separate entries of the source, which are not always exact repeats. Identical values can stand only once. Inconclusive results and toxic doses are left out.

Test system: P388 leukemia ip, CD2F1 mice, survival T/C
Assay: NCI In Vivo Anticancer Drug Screen. Data for tumor model P388 Leukemia (intraperitoneal) in CD2F1 (CDF1) mice
Settings: endpoint: median survival time, higher = longer survival
How it was run: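 Mice carrying the transplanted tumor received test compound or vehicle. Survival was recorded in each group, and the value is the treated-group measurement divided by that of the vehicle-treated control group.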

[1] = dose: 25.0 mg/kg/injection, schedule: Q01DX005 (ip), vehicle: saline
[2] = dose: 50.0 mg/kg/injection, schedule: Q01DX005 (ip), vehicle: saline
[3] = dose: 6.25 mg/kg/injection, schedule: Q01DX009 (ip), vehicle: water
[4] = dose: 12.5 mg/kg/injection, schedule: Q01DX009 (ip), vehicle: water
[5] = dose: 100.0 mg/kg/injection, schedule: Q01DX009 (ip), vehicle: saline

SMILES: CCOS(=O)(=O)CS(C)(=O)=O
- T/C [1]: 118 % of control
- T/C [2]: 118 % of control
- T/C (dose: 100.0 mg/kg/injection, schedule: Q01DX005 (ip), vehicle: saline): 160 % of control and 170 % of control
- T/C (dose: 150.0 mg/kg/injection, schedule: Q01DX005 (ip), vehicle: saline): 104 % of control

SMILES: CCc1c(-c2ccccc2)n[nH]c1-c1[nH]nc(-c2ccccc2)c1CC
- T/C (dose: 60.0 mg/kg/injection, schedule: Q01DX005 (ip), vehicle: Klucel (hydroxypropylcellulose) (HPC)): 96 % of control
- T/C (dose: 120.0 mg/kg/injection, schedule: Q01DX005 (ip), vehicle: Klucel (hydroxypropylcellulose) (HPC)): 96 % of control
- T/C (dose: 240.0 mg/kg/injection, schedule: Q01DX005 (ip), vehicle: Klucel (hydroxypropylcellulose) (HPC)): 96 % of control

SMILES: CNc1nc(N(C)C)nc(N(C)C)n1
- T/C [3]: 105 % of control and 96 % of control
- T/C [4]: 105 % of control
- T/C (dose: 16.0 mg/kg/injection, schedule: Q03HX008 (ip), vehicle: water): 102 % of control
- T/C (dose: 16.0 mg/kg/injection, schedule: Q03HX016 (ip), vehicle: water): 96 % of control
- T/C (dose: 16.0 mg/kg/injection, schedule: Q03HX024 (ip), vehicle: water): 96 % of control
- T/C (dose: 25.0 mg/kg/injection, schedule: Q01DX009 (ip), vehicle: water): 105 % of control
- T/C (dose: 30.0 mg/kg/injection, schedule: Q01DX009 (ip), vehicle: water): 104 % of control
- T/C (dose: 32.0 mg/kg/injection, schedule: Q01DX005 (ip), vehicle: water): 99 % of control
- T/C (dose: 32.0 mg/kg/injection, schedule: Q01DX009 (ip), vehicle: water): 86 % of control
- T/C (dose: 32.0 mg/kg/injection, schedule: Q01DX009 (oral), vehicle: water): 110 % of control
- T/C (dose: 32.0 mg/kg/injection, schedule: Q01DX009 (sc), vehicle: water): 106 % of control
- T/C (dose: 32.0 mg/kg/injection, schedule: Q03HX008 (ip), vehicle: water): 103 % of control
- T/C (dose: 32.0 mg/kg/injection, schedule: Q03HX016 (ip), vehicle: water): 100 % of control
- T/C (dose: 32.0 mg/kg/injection, schedule: Q03HX024 (ip), vehicle: water): 114 % of control
- T/C (dose: 44.0 mg/kg/injection, schedule: Q01DX009 (ip), vehicle: water): 104 % of control
- T/C (dose: 50.0 mg/kg/injection, schedule: Q01DX009 (ip), vehicle: water): 112 % of control
- T/C (dose: 64.0 mg/kg/injection, schedule: Q01DX001 (ip), vehicle: water): 102 % of control
- T/C (dose: 64.0 mg/kg/injection, schedule: Q01DX001 (oral), vehicle: water): 103 % of control
- T/C (dose: 64.0 mg/kg/injection, schedule: Q01DX005 (ip), vehicle: water): 109 % of control
- T/C (dose: 64.0 mg/kg/injection, schedule: Q01DX009 (ip), vehicle: water): 93 % of control
- T/C (dose: 64.0 mg/kg/injection, schedule: Q01DX009 (oral), vehicle: water): 115 % of control
- T/C (dose: 64.0 mg/kg/injection, schedule: Q01DX009 (sc), vehicle: water): 117 % of control
- T/C (dose: 64.0 mg/kg/injection, schedule: Q04DX003 (ip), vehicle: water): 105 % of control
- T/C (dose: 64.0 mg/kg/injection, schedule: Q08DX002 (ip), vehicle: water): 103 % of control
- T/C (dose: 67.0 mg/kg/injection, schedule: Q01DX009 (ip), vehicle: water): 116 % of control
- T/C (dose: 128.0 mg/kg/injection, schedule: Q01DX001 (ip), vehicle: water): 102 % of control
- T/C (dose: 128.0 mg/kg/injection, schedule: Q01DX001 (oral), vehicle: water): 101 % of control
- T/C (dose: 128.0 mg/kg/injection, schedule: Q01DX005 (ip), vehicle: water): 99 % of control
- T/C (dose: 128.0 mg/kg/injection, schedule: Q01DX009 (oral), vehicle: water): 96 % of control
- T/C (dose: 128.0 mg/kg/injection, schedule: Q01DX009 (sc), vehicle: water): 86 % of control
- T/C (dose: 128.0 mg/kg/injection, schedule: Q04DX003 (ip), vehicle: water): 112 % of control
- T/C (dose: 128.0 mg/kg/injection, schedule: Q08DX002 (ip), vehicle: water): 114 % of control
- T/C (dose: 256.0 mg/kg/injection, schedule: Q01DX001 (oral), vehicle: water): 100 % of control

SMILES: CC(C)(C)S(=O)(=O)C(C)(C)C
- T/C (dose: 25.0 mg/kg/injection, schedule: Q01DX001 (ip), vehicle: saline with Tween-80): 109 % of control
- T/C (dose: 50.0 mg/kg/injection, schedule: Q01DX001 (ip), vehicle: saline with Tween-80): 111 % of control
- T/C (dose: 100.0 mg/kg/injection, schedule: Q01DX001 (ip), vehicle: saline with Tween-80): 95 % of control
- T/C (dose: 200.0 mg/kg/injection, schedule: Q01DX001 (ip), vehicle: saline with Tween-80): 100 % of control

SMILES: Cc1ccc(NCCC2CCCN3CCCCC23)c2c(=O)c3ccccc3sc12 (centres undefined)
- T/C (dose: 12.5 mg/kg/injection, schedule: Q01DX005 (ip), vehicle: distilled water + Tween-80): 100 % of control
- T/C (dose: 25.0 mg/kg/injection, schedule: Q01DX005 (ip), vehicle: distilled water + Tween-80): 91 % of control

SMILES: CC(=O)Oc1cc2c(cc1OC(C)=O)C(=O)CCC=C2
- T/C (dose: 100.0 mg/kg/injection, schedule: Q04DX003 (ip), vehicle: saline sonified): 110 % of control
- T/C (dose: 200.0 mg/kg/injection, schedule: Q04DX003 (ip), vehicle: saline sonified): 100 % of control
- T/C (dose: 400.0 mg/kg/injection, schedule: Q04DX003 (ip), vehicle: saline sonified): 100 % of control

SMILES: Nc1c(I)cc(CC(N)C(=O)O)cc1I (centres undefined)
- T/C (dose: 50.0 mg/kg/injection, schedule: Q01DX009 (ip), vehicle: saline): 94 % of control
- T/C [5]: 86 % of control
- T/C (dose: 200.0 mg/kg/injection, schedule: Q01DX009 (ip), vehicle: saline): 89 % of control

SMILES: COc1ccc(Cc2n[nH]c(=O)c3c(C)[nH]nc23)cc1
- T/C (dose: 50.0 mg/kg/injection, schedule: Q01DX009 (ip), vehicle: Klucel (hydroxypropylcellulose) (HPC)): 93 % of control
- T/C (dose: 100.0 mg/kg/injection, schedule: Q01DX009 (ip), vehicle: Klucel (hydroxypropylcellulose) (HPC)): 100 % of control
- T/C (dose: 200.0 mg/kg/injection, schedule: Q01DX009 (ip), vehicle: Klucel (hydroxypropylcellulose) (HPC)): 119 % of control

SMILES: CCN(CC)CCCNc1nccc2c(OC)cccc12
- T/C [1]: 93 % of control
- T/C [2]: 89 % of control

SMILES: COc1cc2c(c(OC)c1OC)-c1ccc(=O)c(OC)cc1C(N(C)C(C)=O)CC2 (centres undefined)
- T/C (dose: 1.25 mg/kg/injection, schedule: Q01DX009 (ip), vehicle: Klucel (hydroxypropylcellulose) (HPC)): 100 % of control
- T/C (dose: 2.5 mg/kg/injection, schedule: Q01DX009 (ip), vehicle: Klucel (hydroxypropylcellulose) (HPC)): 100 % of control
- T/C (dose: 5.0 mg/kg/injection, schedule: Q01DX009 (ip), vehicle: Klucel (hydroxypropylcellulose) (HPC)): 113 % of control
- T/C (dose: 10.0 mg/kg/injection, schedule: Q01DX009 (ip), vehicle: Klucel (hydroxypropylcellulose) (HPC)): 103 % of control
- T/C (dose: 20.0 mg/kg/injection, schedule: Q01DX009 (ip), vehicle: Klucel (hydroxypropylcellulose) (HPC)): 106 % of control

SMILES: Oc1ccc(Br)cc1C=NCCS
- T/C (dose: 15.0 mg/kg/injection, schedule: Q01DX005 (ip), vehicle: saline with Tween-80): 97 % of control
- T/C (dose: 30.0 mg/kg/injection, schedule: Q01DX005 (ip), vehicle: saline with Tween-80): 94 % of control
- T/C (dose: 240.0 mg/kg/injection, schedule: Q01DX005 (ip), vehicle: saline with Tween-80): 89 % of control

SMILES: [Cl][Cu][Cl].[O-][n+]1c2ccccc2nc2ccccc21
- T/C (dose: 12.5 mg/kg/injection, schedule: Q04DX003 (ip), vehicle: saline with Tween-80): 92 % of control
- T/C (dose: 25.0 mg/kg/injection, schedule: Q04DX003 (ip), vehicle: saline with Tween-80): 103 % of control

SMILES: CCOc1ccc(-c2nc(-c3ccc(N(C)C(=O)C(Cl)Cl)cc3)cs2)cc1OCC
- T/C (dose: 100.0 mg/kg/injection, schedule: Q04DX003 (ip), vehicle: Klucel (hydroxypropylcellulose) (HPC)): 102 % of control
- T/C (dose: 200.0 mg/kg/injection, schedule: Q04DX003 (ip), vehicle: Klucel (hydroxypropylcellulose) (HPC)): 100 % of control
- T/C (dose: 400.0 mg/kg/injection, schedule: Q04DX003 (ip), vehicle: Klucel (hydroxypropylcellulose) (HPC)): 94 % of control

SMILES: Cc1ccc(NN=O)nc1
- T/C [3]: 151 % of control and 152 % of control
- T/C [4]: 153 % of control and 183 % of control

SMILES: COc1cc(C)c2sc3ccccc3c(=O)c2c1NCCN(C)C
- T/C (dose: 12.5 mg/kg/injection, schedule: Q01DX009 (ip), vehicle: saline): 100 % of control and 104 % of control and 108 % of control
- T/C (dose: 25.0 mg/kg/injection, schedule: Q01DX009 (ip), vehicle: saline): 99 % of control and 108 % of control and 110 % of control
- T/C (dose: 50.0 mg/kg/injection, schedule: Q01DX009 (ip), vehicle: saline with Tween-80): 96 % of control
- T/C [5]: 111 % of control and 112 % of control

SMILES: CC1OC(CC(=O)O)Cc2c1c(O)c1c(O)cc(-c3cc(=O)c4c(=O)c5c(c(=O)c=4c3=O)CC(CC(=O)O)OC5C)c(O)c1c2O (centres undefined)
- T/C (dose: 6.25 mg/kg/injection, schedule: Q01DX009 (ip), vehicle: saline with Tween-80): 100 % of control
- T/C (dose: 12.5 mg/kg/injection, schedule: Q01DX009 (ip), vehicle: saline with Tween-80): 102 % of control
- T/C (dose: 25.0 mg/kg/injection, schedule: Q01DX009 (ip), vehicle: saline with Tween-80): 103 % of control
